Reference: US20250186627A1, “RADIOLABELED COMPOUNDS TARGETING THE PROSTATE-SPECIFIC MEMBRANE ANTIGEN” (PROVINCIAL HEALTH SERVICES AUTHORITY, priority 2022, published 2025)

Tested on: NRG-mice bearing LNCaP tumors
Experiment: Biodistribution (and PET/SPECT imaging) in NRG-mice bearing LNCaP tumors
Assay type: in vivo
Details: Avg
Method in brief: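 LNCaP xenografts (~10 million cells, left dorsal flank) grown 4-6 weeks to 200-600 mm^3 in NRG mice. Tail-vein injection of 4-6 MBq ^68Ga or 18.5 MBq ^177Lu tracer under isoflurane; CT then 10-min static PET or 1-h SPECT. Biodistribution by gamma counting of weighed organs, expressed as %ID/g.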

Biodistribution: Adrenal gland (3 h p.i.): 2.79 % ID/g
Biodistribution: Blood (3 h p.i.): 11.22 % ID/g
Biodistribution: Bone (3 h p.i.): 1.03 % ID/g
Biodistribution: Brain (3 h p.i.): 0.18 % ID/g
Biodistribution: Fat (3 h p.i.): 1.91 % ID/g
Biodistribution: Heart (3 h p.i.): 2.52 % ID/g
Biodistribution: Intestine (3 h p.i.): 0.98 % ID/g
Biodistribution: LNCaP tumor (3 h p.i.): 50.23 % ID/g
Biodistribution: Lacrimal gland (3 h p.i.): 0.39 % ID/g
Biodistribution: Liver (3 h p.i.): 2.18 % ID/g
Biodistribution: Lungs (3 h p.i.): 5.22 % ID/g
Biodistribution: Muscle (3 h p.i.): 0.87 % ID/g
Biodistribution: Pancreas (3 h p.i.): 1.07 % ID/g
Biodistribution: Salivary gland (3 h p.i.): 1.92 % ID/g
Biodistribution: Seminal gland (3 h p.i.): 0.59 % ID/g
Biodistribution: Spleen (3 h p.i.): 1.53 % ID/g
Biodistribution: Stomach (3 h p.i.): 0.58 % ID/g
Biodistribution: Testes (3 h p.i.): 2.55 % ID/g
Biodistribution: Thyroid (3 h p.i.): 2.44 % ID/g
Biodistribution: Urine (3 h p.i.): 180.95 % ID/g
Biodistribution: kidney (3 h p.i.): 10.42 % ID/g
Biodistribution: Adrenal gland (24 h p.i.): 0.54 % ID/g
Biodistribution: Blood (24 h p.i.): 0.70 % ID/g
Biodistribution: Bone (24 h p.i.): 0.18 % ID/g
Biodistribution: Brain (24 h p.i.): 0.03 % ID/g
Biodistribution: Fat (24 h p.i.): 0.33 % ID/g
Biodistribution: Heart (24 h p.i.): 0.37 % ID/g
Biodistribution: Intestine (24 h p.i.): 0.23 % ID/g
Biodistribution: LNCaP tumor (24 h p.i.): 55.39 % ID/g
Biodistribution: Lacrimal gland (24 h p.i.): 0.00 % ID/g
Biodistribution: Liver (24 h p.i.): 0.48 % ID/g
Biodistribution: Lungs (24 h p.i.): 0.65 % ID/g
Biodistribution: Muscle (24 h p.i.): 0.11 % ID/g
Biodistribution: Pancreas (24 h p.i.): 0.17 % ID/g
Biodistribution: Salivary gland (24 h p.i.): 0.56 % ID/g
Biodistribution: Seminal gland (24 h p.i.): 0.23 % ID/g
Biodistribution: Spleen (24 h p.i.): 0.37 % ID/g
Biodistribution: Stomach (24 h p.i.): 0.73 % ID/g
Biodistribution: Testes (24 h p.i.): 0.37 % ID/g
Biodistribution: Thyroid (24 h p.i.): 0.52 % ID/g
Biodistribution: Urine (24 h p.i.): 8.42 % ID/g
Biodistribution: kidney (24 h p.i.): 4.02 % ID/g
Biodistribution: Adrenal gland (72 h p.i.): 0.53 % ID/g
Biodistribution: Blood (72 h p.i.): 0.13 % ID/g
Biodistribution: Bone (72 h p.i.): 0.05 % ID/g
Biodistribution: Brain (72 h p.i.): 0.01 % ID/g
Biodistribution: Fat (72 h p.i.): 0.16 % ID/g
Biodistribution: Heart (72 h p.i.): 0.18 % ID/g
Biodistribution: Intestine (72 h p.i.): 0.08 % ID/g
Biodistribution: LNCaP tumor (72 h p.i.): 45.10 % ID/g
Biodistribution: Lacrimal gland (72 h p.i.): 0.00 % ID/g
Biodistribution: Liver (72 h p.i.): 0.29 % ID/g
Biodistribution: Lungs (72 h p.i.): 0.41 % ID/g
Biodistribution: Muscle (72 h p.i.): 0.04 % ID/g
Biodistribution: Pancreas (72 h p.i.): 0.09 % ID/g
Biodistribution: Salivary gland (72 h p.i.): 0.27 % ID/g
Biodistribution: Seminal gland (72 h p.i.): 0.06 % ID/g
Biodistribution: Spleen (72 h p.i.): 0.45 % ID/g
Biodistribution: Stomach (72 h p.i.): 0.15 % ID/g
Biodistribution: Testes (72 h p.i.): 0.39 % ID/g
Biodistribution: Thyroid (72 h p.i.): 0.37 % ID/g
Biodistribution: Urine (72 h p.i.): 1.12 % ID/g
Biodistribution: kidney (72 h p.i.): 1.84 % ID/g
Biodistribution: Adrenal gland (144 h p.i.): 0.31 % ID/g
Biodistribution: Blood (144 h p.i.): 0.04 % ID/g
Biodistribution: Bone (144 h p.i.): 0.04 % ID/g
Biodistribution: Brain (144 h p.i.): 0.01 % ID/g
Biodistribution: Fat (144 h p.i.): 0.11 % ID/g
Biodistribution: Heart (144 h p.i.): 0.13 % ID/g
Biodistribution: Intestine (144 h p.i.): 0.03 % ID/g
Biodistribution: LNCaP tumor (144 h p.i.): 40.77 % ID/g
Biodistribution: Lacrimal gland (144 h p.i.): 0.00 % ID/g
Biodistribution: Liver (144 h p.i.): 0.19 % ID/g
Biodistribution: Lungs (144 h p.i.): 0.93 % ID/g
Biodistribution: Muscle (144 h p.i.): 0.03 % ID/g
Biodistribution: Pancreas (144 h p.i.): 0.06 % ID/g
Biodistribution: Salivary gland (144 h p.i.): 0.34 % ID/g
Biodistribution: Seminal gland (144 h p.i.): 0.03 % ID/g
Biodistribution: Spleen (144 h p.i.): 0.51 % ID/g
Biodistribution: Stomach (144 h p.i.): 0.03 % ID/g
Biodistribution: Testes (144 h p.i.): 0.33 % ID/g
Biodistribution: Thyroid (144 h p.i.): 0.28 % ID/g
Biodistribution: Urine (144 h p.i.): 0.84 % ID/g
Biodistribution: kidney (144 h p.i.): 1.10 % ID/g
Biodistribution: Adrenal gland (240 h p.i.): 0.11 % ID/g
Biodistribution: Blood (240 h p.i.): 0.01 % ID/g
Biodistribution: Bone (240 h p.i.): 0.00 % ID/g
Biodistribution: Brain (240 h p.i.): 0.00 % ID/g
Biodistribution: Fat (240 h p.i.): 0.06 % ID/g
Biodistribution: Heart (240 h p.i.): 0.05 % ID/g
Biodistribution: Intestine (240 h p.i.): 0.02 % ID/g
Biodistribution: LNCaP tumor (240 h p.i.): 25.30 % ID/g
Biodistribution: Lacrimal gland (240 h p.i.): 0.00 % ID/g
Biodistribution: Liver (240 h p.i.): 0.15 % ID/g
Biodistribution: Lungs (240 h p.i.): 0.09 % ID/g
Biodistribution: Muscle (240 h p.i.): 0.01 % ID/g
Biodistribution: Pancreas (240 h p.i.): 0.03 % ID/g
Biodistribution: Salivary gland (240 h p.i.): 0.10 % ID/g
Biodistribution: Seminal gland (240 h p.i.): 0.01 % ID/g
Biodistribution: Spleen (240 h p.i.): 0.46 % ID/g
Biodistribution: Stomach (240 h p.i.): 0.02 % ID/g
Biodistribution: Testes (240 h p.i.): 0.16 % ID/g
Biodistribution: Thyroid (240 h p.i.): 0.12 % ID/g
Biodistribution: Urine (240 h p.i.): 0.37 % ID/g
Biodistribution: kidney (240 h p.i.): 0.52 % ID/g
Structure (SMILES): COc1ccc(CCCC(=O)NCC(=O)NC(CCCCNC(=O)CN2CCN(CC(=O)[O-])CCN(CC(=O)[O-])CCN(CC(=O)[O-])CC2)CC(=O)NCC2CCC(C(=O)NC(Cc3c4ccccc4cc4ccccc34)C(=O)NCCCCC(NC(=O)NC(CC(F)C(=O)O)C(=O)O)C(=O)O)CC2)cc1.[177Lu+3] (stereo not drawn) [^177Lu-CCZ02019]
